Read-outs that look alike come from different tables or passages of the source.
What was measured:
[1] = system: Key Broadleaf Weed and Crop Species; experiment: Post-emergent Test II herbicidal activity (Table 5); assay type: in vivo; conditions: post-emergence, 336 h, post-emergent, 14 days after application; for pest or weed control at 70 g/ha: 70 g ai/ha; for pest or weed control at 140 g/ha: 140 g ai/ha
In short: (§1)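 Spray rates: a highest rate plus ½×, ¼×, ⅛×, 1/16×, all delivered at 187 L/ha to plants at the first–second true leaf stage. Readout is a visual percent injury score at 14 d, where 100 means complete kill.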

[2] = system: Key Grass and Sedge Weeds as well as Grass Crops; experiment: Post-emergent Test II herbicidal activity (Table 6); assay type: in vivo; conditions: post-emergence, 336 h; for pest or weed control at 70 g/ha: application rate 70 g ai/ha; for pest or weed control at 140 g/ha: application rate 140 g ai/ha
In short: as §1

[3] = ABUTH: velvetleaf (Abutilon theophrasti), read-out: Visual Growth Reduction (%) 14 Days After Application ABUTH
[4] = AMARE: redroot pigweed (Amaranthus retroflexus), read-out: Visual Growth Reduction (%) 14 Days After Application AMARE
[5] = BRSNN: oilseed-rape, canola (Brassica napus), read-out: Visual Growth Reduction (%) 14 Days After Application BRSNN
[6] = CHEAL: lambsquarters (Chenopodium album), read-out: Visual Growth Reduction (%) 14 Days After Application CHEAL
[7] = EPHHL: wild poinsettia (Euphorbia heterophylla), read-out: Visual Growth Reduction (%) 14 Days After Application EPHHL
[8] = HELAN: sunflower (Helianthus annuus), read-out: Visual Growth Reduction (%) 14 Days After Application HELAN
[9] = VIOTR: wild pansy (Viola tricolor), read-out: Visual Growth Reduction (%) 14 Days After Application VIOTR
[10] = Triticum aestivum, TRZSS (wheat), read-out: Visual Growth Reduction (%) 14 Days After Application, TRZSS
[11] = CYPES: yellow nutsedge (Cyperus esculentus), read-out: Visual Growth Reduction (%) 14 Days After Application, CYPES
[12] = DIGSA: crabgrass (Digitaria sanguinalis), read-out: Visual Growth Reduction (%) 14 Days After Application, DIGSA
[13] = ECHCG: barnyardgrass (Echinochloa crus-galli), read-out: Visual Growth Reduction (%) 14 Days After Application, ECHCG
[14] = ORYSA: rice (Oryza sativa), read-out: Visual Growth Reduction (%) 14 Days After Application, ORYSA
[15] = SETFA: giant foxtail (Setaria faberi), read-out: Visual Growth Reduction (%) 14 Days After Application, SETFA
[16] = SORVU: grain sorghum (Sorghum vulgare), read-out: Visual Growth Reduction (%) 14 Days After Application, SORVU
[17] = ZEAMX: maize, corn (Zea mays), read-out: Visual Growth Reduction (%) 14 Days After Application, ZEAMX

SMILES	pest or weed control at 70 g/ha [1, 3]	pest or weed control at 140 g/ha [1, 3]	pest or weed control at 70 g/ha [1, 4]	pest or weed control at 140 g/ha [1, 4]	pest or weed control at 70 g/ha [1, 5]	pest or weed control at 140 g/ha [1, 5]	pest or weed control at 70 g/ha [1, 6]	pest or weed control at 140 g/ha [1, 6]	pest or weed control at 70 g/ha [1, 7]	pest or weed control at 140 g/ha [1, 7]	pest or weed control at 70 g/ha [1, 8]	pest or weed control at 140 g/ha [1, 8]	pest or weed control at 70 g/ha [1, 9]	pest or weed control at 140 g/ha [1, 9]	pest or weed control at 70 g/ha [2, 10]	pest or weed control at 140 g/ha [2, 10]	pest or weed control at 70 g/ha [2, 11]	pest or weed control at 140 g/ha [2, 11]	pest or weed control at 70 g/ha [2, 12]	pest or weed control at 140 g/ha [2, 12]	further results
C=Cc1c(C(=O)O)nc(-c2ccc(C#N)cc2)c(F)c1N [Compound 150]	45 to 59%	60 to 74%	95 to 100%	95 to 100%	45 to 59%	60 to 74%	85 to 94%	85 to 94%	95 to 100%	95 to 100%	95 to 100%	95 to 100%	0 to 29%	0 to 29%	30 to 44%	45 to 59%	0 to 29%	45 to 59%	0 to 29%	0 to 29%	pest or weed control at 70 g/ha [2, 13]: 0 to 29%; pest or weed control at 140 g/ha [2, 13]: 0 to 29%; pest or weed control at 70 g/ha [2, 14]: 0 to 29%; pest or weed control at 140 g/ha [2, 14]: 0 to 29%; pest or weed control at 70 g/ha [2, 15]: 0 to 29%; pest or weed control at 140 g/ha [2, 15]: 60 to 74%; pest or weed control at 70 g/ha [2, 16]: 45 to 59%; pest or weed control at 140 g/ha [2, 16]: 45 to 59%; pest or weed control at 70 g/ha [2, 17]: 45 to 59%; pest or weed control at 140 g/ha [2, 17]: 60 to 74%
COC(=O)c1nc(-c2ccc(C#N)c(F)c2)c(C)c(N)c1Cl [Compound 155, Methyl 4-amino-3-chloro-6-(4-cyano-3-fluorophenyl)-5-methylpicolinate]	0 to 29%	0 to 29%	0 to 29%	0 to 29%	45 to 59%	60 to 74%	85 to 94%	95 to 100%	0 to 29%	0 to 29%	85 to 94%	85 to 94%	0 to 29%	0 to 29%	0 to 29%	0 to 29%	0 to 29%	0 to 29%	0 to 29%	0 to 29%	pest or weed control at 70 g/ha [2, 13]: 0 to 29%; pest or weed control at 140 g/ha [2, 13]: 0 to 29%; pest or weed control at 70 g/ha [2, 14]: 0 to 29%; pest or weed control at 140 g/ha [2, 14]: 0 to 29%; pest or weed control at 70 g/ha [2, 15]: 0 to 29%; pest or weed control at 140 g/ha [2, 15]: 0 to 29%; pest or weed control at 70 g/ha [2, 16]: 0 to 29%; pest or weed control at 140 g/ha [2, 16]: 0 to 29%; pest or weed control at 70 g/ha [2, 17]: 0 to 29%; pest or weed control at 140 g/ha [2, 17]: 0 to 29%

From patent US9113629B2, “4-amino-6-(4-substituted-phenyl)-picolinates and 6-amino-2-(4-substituted-phenyl)-pyrimidine-4-carboxylates and their use as herbicides” (DOW AGROSCIENCES LLC, priority 2013, dated 2015)
